Measured values reported in ChEMBL document CHEMBL3580546, “Structure-activity study of N-((trans)-4-(2-(7-cyano-3,4-dihydroisoquinolin-2(1H)-yl)ethyl)cyclohexyl)-1H-indole-2-carboxamide (SB269652), a bitopic ligand that acts as a negative allosteric modulator of the dopamine D2 receptor” (J Med Chem, 2015).

What was measured:
[1] = biological target: D(2) dopamine receptor (Homo sapiens) (UniProt P14416); assay: Displacement of [3H]raclopride from wild type human dopamine D2L receptor expressed in FlpIn CHO cell membrane assessed as equilibrium dissociation constant after 3 hrs by MicroBeta counting analysis; format: cell membranes
Sequence of D(2) dopamine receptor (Homo sapiens) (P14416 whole entry): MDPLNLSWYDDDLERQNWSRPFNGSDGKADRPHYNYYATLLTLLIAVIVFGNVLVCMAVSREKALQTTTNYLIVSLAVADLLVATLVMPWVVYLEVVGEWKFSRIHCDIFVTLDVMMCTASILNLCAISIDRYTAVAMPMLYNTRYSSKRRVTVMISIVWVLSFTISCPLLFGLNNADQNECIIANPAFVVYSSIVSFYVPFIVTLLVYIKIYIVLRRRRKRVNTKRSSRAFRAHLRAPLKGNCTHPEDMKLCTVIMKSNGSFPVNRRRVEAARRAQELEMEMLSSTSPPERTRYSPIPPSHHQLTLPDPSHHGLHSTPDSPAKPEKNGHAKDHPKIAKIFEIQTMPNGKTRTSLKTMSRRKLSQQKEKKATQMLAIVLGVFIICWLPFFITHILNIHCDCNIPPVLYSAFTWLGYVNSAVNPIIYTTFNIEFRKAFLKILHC

[2] = biological target: D(2) dopamine receptor (Homo sapiens) (UniProt P14416); assay: Negative allosteric modulator activity at wild type human dopamine D2L receptor expressed in FlpIn CHO […] assessed as ERK1/2 phosphorylation measured as equilibrium dissociation constant after 30 mins; format: cell-based
[3] = biological target: D(2) dopamine receptor (Homo sapiens) (UniProt P14416); assay: Binding affinity to human dopamine D2 receptor

SMILES: O=C(N[C@H]1CC[C@H](CCN2CCN(c3cccc(Cl)c3Cl)CC2)CC1)c1cc2ccccc2[nH]1
- Kb [1]: 5.25 nM
- pKb [1]: 8.28
- Kb [2]: 1.38 nM
- pKb [2]: 8.86

SMILES: O=C(N[C@H]1CC[C@H](CCN2CCc3ccc(F)cc3C2)CC1)c1cc2ccccc2[nH]1
- Kb [1]: 245 nM
- pKb [1]: 6.61
- Kb [2]: 1050 nM
- pKb [2]: 5.98

SMILES: O=C(N[C@H]1CC[C@H](CCN2CCc3ccc(Cl)cc3C2)CC1)c1cc2ccccc2[nH]1
- Kb [1]: 148 nM
- pKb [1]: 6.83
- Kb [2]: 2090 nM
- pKb [2]: 5.68

SMILES: N#Cc1ccc2c(c1)CN(CC[C@H]1CC[C@H](NC(=O)c3cc4cccnc4[nH]3)CC1)CC2
- Kb [1]: 45.7 nM
- pKb [1]: 7.34
- Kb [2]: 23.4 nM
- pKb [2]: 7.63

SMILES: COc1ccccc1N1CCN(CC[C@H]2CC[C@H](NC(=O)c3cc4ccccc4[nH]3)CC2)CC1
- Kb [1]: 3.4 nM
- pKb [1]: 8.41
- Kb [2]: 0.257 nM
- pKb [2]: 9.59

SMILES: Cn1c(C(=O)N[C@H]2CC[C@H](CCN3CCc4ccc(C#N)cc4C3)CC2)cc2ccccc21
- Kb [1]: 151 nM
- pKb [1]: 6.82
- Kb [2]: 72.4 nM
- pKb [2]: 7.14

SMILES: N#Cc1ccc2c(c1)CN(CCCNC(=O)c1cc3ccccc3[nH]1)CC2
- Kb [1]: 372 nM
- pKb [1]: 6.43
- Kb [2]: 138 nM
- pKb [2]: 6.86

SMILES: N#Cc1ccc2c(c1)CN(CC[C@H]1CC[C@H](NC(=O)[C@H]3CCCN3)CC1)CC2
- Kb [1]: 363 nM
- pKb [1]: 6.74
- Kb [2]: 45.7 nM
- pKb [2]: 7.34

SMILES: CN(C(=O)c1cc2ccccc2[nH]1)[C@H]1CC[C@H](CCN2CCc3ccc(C#N)cc3C2)CC1
- Kb [1]: 117 nM
- pKb [1]: 6.93
- Kb [2]: 91.2 nM
- pKb [2]: 7.04

SMILES: N#Cc1ccc2c(c1)CNCC2
- Kb [3]: 2500 nM

SMILES: O=C(N[C@H]1CC[C@H](CCN2CCc3sccc3C2)CC1)c1cc2ccccc2[nH]1
- Kb [1]: 2240 nM
- pKb [1]: 5.65
- Kb [2]: 339 nM
- pKb [2]: 6.47

SMILES: N#Cc1ccc2c(c1)CN(CC[C@H]1CC[C@H](NC(=O)c3cc4ccccc4o3)CC1)CC2
- Kb [1]: 282 nM
- pKb [1]: 6.55
- Kb [2]: 18.2 nM
- pKb [2]: 7.74

SMILES: N#Cc1ccc2c(c1)CN(CCCCCCNC(=O)c1cc3ccccc3[nH]1)CC2
- Kb [1]: 269 nM
- pKb [1]: 6.57
- Kb [2]: 30.1 nM
- pKb [2]: 7.52

SMILES: O=C(N[C@H]1CC[C@H](CCN2CCc3ccc(Br)cc3C2)CC1)c1cc2ccccc2[nH]1
- Kb [1]: 170 nM
- pKb [1]: 6.77
- Kb [2]: 138 nM
- pKb [2]: 6.86

SMILES: O=C(N[C@H]1CC[C@H](CCN2CCc3ccc(C(F)(F)F)cc3C2)CC1)c1cc2ccccc2[nH]1
- Kb [1]: 759 nM
- pKb [1]: 6.12
- Kb [2]: 891 nM
- pKb [2]: 6.05

SMILES: N#Cc1ccc2c(c1)CN(CC[C@H]1CC[C@H](NC(=O)C3=Cc4ccccc4C3)CC1)CC2
- Kb [1]: 151 nM
- pKb [1]: 6.82
- Kb [2]: 22.9 nM
- pKb [2]: 7.64

SMILES: N#Cc1ccc2c(c1)CN(CCCCCNC(=O)c1cc3ccccc3[nH]1)CC2
- Kb [1]: 479 nM
- pKb [1]: 6.32
- Kb [2]: 132 nM
- pKb [2]: 6.88

SMILES: N#Cc1ccc2c(c1)CN(CC[C@H]1CC[C@H](NC(=O)[C@@H]3CCCN3)CC1)CC2
- Kb [1]: 23.4 nM
- pKb [1]: 7.63
- Kb [2]: 27.5 nM
- pKb [2]: 7.56

SMILES: N#Cc1ccc2c(c1)CN(CC[C@H]1CC[C@H](NC(=O)c3ccc[nH]3)CC1)CC2
- Kb [1]: 57.5 nM
- pKb [1]: 7.24
- Kb [2]: 3.31 nM
- pKb [2]: 8.48

SMILES: O=C(N[C@H]1CC[C@H](CCN2CCCc3ccccc3C2)CC1)c1cc2ccccc2[nH]1
- Kb [1]: 2510 nM
- pKb [1]: 5.6
- Kb [2]: 2570 nM
- pKb [2]: 5.59

SMILES: N#Cc1ccc2c(c1)CN(CC[C@H]1CC[C@H](NC(=O)c3nc4ccccc4[nH]3)CC1)CC2
- Kb [1]: 81.3 nM
- pKb [1]: 7.09
- Kb [2]: 174 nM
- pKb [2]: 6.76

SMILES: N#Cc1ccc2c(c1)CN(CC[C@H]1CC[C@H](NC(=O)c3nc4ccccc4o3)CC1)CC2
- Kb [1]: 263 nM
- pKb [1]: 6.58
- Kb [2]: 18.2 nM
- pKb [2]: 7.74

SMILES: O=C(N[C@H]1CC[C@H](CCN2CCc3ccccc3C2)CC1)c1cc2ccccc2[nH]1
- Kb [1]: 295 nM
- pKb [1]: 6.53
- Kb [2]: 87 nM
- pKb [2]: 7.06

SMILES: N#Cc1ccc2c(c1)CN(CCCCNC(=O)c1cc3ccccc3[nH]1)CC2
- Kb [1]: 158 nM
- pKb [1]: 6.8
- Kb [2]: 81.2 nM
- pKb [2]: 7.09
